The record followed here is publication PMC7504721, “Targeting the Initiator Protease of the Classical Pathway of Complement Using Fragment-Based Drug Discovery” (Molecules, 2020).

pKd: −log10 of the molar value.

This test addresses T1, full-length C1r (Homo sapiens, UniProt P00736).
T1 construct: purchased Complement Technology (CompTech)
T1 sequence (P00736 18-463 limits assumed): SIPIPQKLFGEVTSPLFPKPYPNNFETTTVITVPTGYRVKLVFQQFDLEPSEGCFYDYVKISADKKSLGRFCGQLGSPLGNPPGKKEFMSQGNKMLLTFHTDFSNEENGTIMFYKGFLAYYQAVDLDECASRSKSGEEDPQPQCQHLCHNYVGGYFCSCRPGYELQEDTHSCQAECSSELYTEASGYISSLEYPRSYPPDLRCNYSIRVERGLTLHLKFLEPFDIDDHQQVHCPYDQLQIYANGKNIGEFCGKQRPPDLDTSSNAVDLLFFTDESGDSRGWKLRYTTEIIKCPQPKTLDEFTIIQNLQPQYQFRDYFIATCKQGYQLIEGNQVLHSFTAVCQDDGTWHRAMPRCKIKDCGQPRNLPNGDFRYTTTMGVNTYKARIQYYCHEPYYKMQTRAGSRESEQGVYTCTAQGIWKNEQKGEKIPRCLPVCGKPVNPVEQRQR
T1 sequence (P00736 464-705 limits assumed): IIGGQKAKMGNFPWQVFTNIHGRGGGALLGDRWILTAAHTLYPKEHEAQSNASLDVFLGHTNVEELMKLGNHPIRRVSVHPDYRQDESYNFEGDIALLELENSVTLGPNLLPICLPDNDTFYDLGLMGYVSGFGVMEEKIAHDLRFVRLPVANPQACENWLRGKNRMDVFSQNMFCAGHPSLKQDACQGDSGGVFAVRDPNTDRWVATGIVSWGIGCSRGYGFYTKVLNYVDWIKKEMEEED
Kind of test: SPR dose-dependent binding, steady-state affinity. The following applies: for pKd: 1:1 steady-state binding model, mean ± S.D. from three independent injection series, 25 °C; for Ligand efficiency (LE): LE = ΔG/number of non-hydrogen atoms, ΔG = -RT x ln KD,C1r, using KD values of Fig. 3. How it is done:
All SPR experiments were carried out using a Biacore T200 (GE Healthcare, Chicago, IL, USA) at 25 °C. For all experiments, a running buffer (HBS-T) of 20 mM HEPES (pH 7.3), 140 mM NaCl, 0.005% (v/v) Tween-20, 5% DMSO (v/v) was used. For each experiment, DMSO calibration curves ranging from 4% to 5.5% DMSO (v/v) were collected at the beginning, end, and every 50 cycles throughout the duration of the experiment. All experiments were performed using HC1500M sensor chips (Xantec, Duesseldorf, Germany). In total, 10 sensor chips and 16 ligand immobilized surfaces were created over the course of this study (detailed in Table S2). In all cases, C1r proteins were immobilized onto chip surfaces using amine-coupling chemistry with 1-ethyl-3-(3-dimethylaminopropyl)-carbodiimide) (EDC), N-hydroxysuccinimide (NHS), followed by ethanolamine. Briefly, 100 mM of EDC and NHS were mixed and injected to activate the chip surface followed by the C1r protein ligand captured at a defined resonance unit (RU) level, followed by reaction quenching with 100 mM ethanolamine pH 8.5. Flow cell 1 was always used as a reference cell (no ligand), unless otherwise noted. All sensorgrams were reference and blank subtracted and analyzed using T200 Evaluation Software (GE Healthcare, Chicago, IL, USA).
To further evaluate hit compounds from the initial SPR screen, dose-dependent SPR binding assays were carried out. Three replicate flow cells were used containing both low and high immobilization densities of C1r (see Table S2). Hit compounds were tested for dose-dependent binding to full-length C1r using a compound concentration range of 7.8–500 µM. T200 evaluation software was used to calculate steady-state affinities for each compound by fitting sensorgrams from each variable concentration injection dataset using a 1:1 Langmuir model of interaction constrained by a theoretical experimental binding response based on the mol. wt. of each compound and derived as stated above. KD values are reported as the mean ± the standard deviation from at least three independent measurements.

Broadly, the pKd is −log10 of the Kd, conventionally taken in molar units. Read a high pKd as a low Kd. In the case of `CN(C)c1cc(N2CCCC(N)C2)ncn1` (centres unmarked) [CMP-1611], the pKd is 3.32 and the “Ligand efficiency (LE)” value is reported as 0.28. For the compound `N=C(N)c1ccc2cc(OC(=O)c3ccc(N=C(N)N)cc3)ccc2c1` [Futhan, reference compound], the pKd was 4.96. Regarding `COCc1nc(-c2ccc(OC3CNC3)cc2)no1` [CMP-1696], the pKd was 3.17 and the “Ligand efficiency (LE)” value is 0.22.
